# Reference: patent publication US10004703B2, “Treatment of alzheimer's disease using compounds that reduce the activity of non-selective CA++ activated ATP-sensitive cation channels regulated by SUR1 channels” (Biogen Chesapeake LLC, priority 2006, dated 2018)
# Columns and labels:
# [1] = Exemplary case: type 2 diabetic patient with AD given daily glibenclamide, metformin ceased; assay type: in vivo, human; details: 10 mg per day
# Source text: The following exemplary descriptions illustrate ways to implement the methods and treatments disclosed herein.
# A type 2 diabetic […] presents to their family physician with complaints of forgetfulness and increasing confusion. They are being treated with metformin and diet controls for their Type 2 diabetes. The patient is diagnosed with AD upon referral to a geriatrician and upon clinical, laboratory and imaging investigations.
# [2] = Exemplary case: AD patient given daily glibenclamide by monthly depot intramuscular injection, neurological testing; assay type: in vivo, human; details: person with AD; 1.0 mg per day via monthly depot intramuscular injection
# Source text: The following exemplary descriptions illustrate ways to implement the methods and treatments disclosed herein. […] A diagnosis of AD is made as other causes are ruled out. […] Depot injection is chosen in order to optimize patient compliance.
compound,measurement,setting,value
"COc1ccc(Cl)cc1C(=O)NCCc1ccc(S(=O)(=O)NC(=O)NC2CCCCC2)cc1 [glibenclamide, 5-chloro-N-[2-[4-(cyclohexylcarbamoylsulfamoyl)phenyl]ethyl]-2-methoxy-benzamide]",Blood glucose measurements and HbA1C levels,[1],stable blood glucose measurements and HbA1C levels
same,Episodes of forgetfulness,[1],episodes of forgetfulness are waning
same,Neurological testing: AD symptoms,[2],stabilization of symptoms
